Measurements: the supplement of paper PMC10290057
Where a name gives a salt, the structure may show the parent alone.

Tested on: HCT116
Test: efficacy (fitted maximal change in viability relative to DMSO control); higher = less cytotoxic (negative = loss of viability)
Details: 48 h
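Note: Luminescence-based viability readout, five doses per compound, normalized against on-plate DMSO and empty-well controls, followed by dose-response curve fitting for every drug.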

SMILES	efficacy [%]
C=Cc1cc(O)cc2nc(-c3ccc(O)c(F)c3)oc12 [Prinaberel]	-14.8
CC(C)(Sc1cc(C(C)(C)C)c(O)c(C(C)(C)C)c1)Sc1cc(C(C)(C)C)c(O)c(C(C)(C)C)c1 [Probucol]	-25.9
CNNCc1ccc(C(=O)NC(C)C)cc1 [Procarbazine hydrochloride]	-10.4
CC[C@H](NC(C)C)[C@H](O)C1=CC=C(O)C2=C1\C=C/C(=O)N2 [Procaterol hydrochloride]	6.79
CCCN(CCC)C(=O)C(CCC(=O)O)NC(=O)c1ccccc1 (stereo not drawn) [Proglumide]	-18.3
CCCNCC(O)COc1ccccc1C(=O)CCc1ccccc1 (stereo not drawn) [Propafenone hydrochloride]	-43.8
CCCOc1ccc(C(=O)OCCN(CC)CC)cc1N [Proparacaine]	-20.7
CC(C)c1cccc(C(C)C)c1O [Propofol]	-8.33
CCCCC[C@H](O)/C=C/[C@H]1[C@H](O)CC(=O)[C@@H]1C/C=C\CCCC(=O)O [Prostaglandin E2]	-28.6
CCCc1cc(C(N)=S)ccn1 [Protionamide]	-9.17
OC[C@H]1O[C@H]([C@H](O)[C@@H](O)[C@@H]1O)C2=C(O)C=CC3=C2O/C=C(C3=O)/C4=CC=C(O)C=C4 [Puerarin]	-15.8
CC(C)[C@H](CO)Nc1nc(Nc2ccc(C(=O)O)c(Cl)c2)c2ncn(C(C)C)c2n1 [Purvalanol B]	-11.6
CC(C)(C)C1=NC2=C([NH]1)C3=CC=C(F)C=C3C4=C2\C=C/NC4=O [Pyridone 6]	-28.4
OC1=CC2=C(C(=C1)O)C(=O)\C(=C(/O2)C3=CC(=C(O)C=C3)O)O [Quercetin]	-10.2
C=C[C@H]1CN2CCC1C[C@@H]2C(O)c1ccnc2ccc(OC)cc12 (stereo partly drawn) [Quinidine]	-25.6
CN1C(=O)\C(=C/C2=C1N=C(NC3CCOCC3)N=C2)OC4=C(F)C=C(F)C=C4 [R-1487]	-14.4
CCc1cccc2c3c([nH]c12)[C@@](CC)(CC(=O)O)OCC3 [R-Etodolac]	-22.7

SMILES	efficacy [%]
CNC(=O)c1ccc(N2C(=S)N(c3ccc(C#N)c(C(F)(F)F)c3)C(=O)C23CCC3)cc1F [RD-162]	-28.5
C[C@H]1CN(CCN1C2=CN=C(NC/3=C/C(=C\N(C)C3=O)C4=CC=NC(=C4CO)N5CC[N]6C7=C(CC(C)(C)C7)C=C6C5=O)C=C2)C8COC8 [RG-7845 (GDC-0853)]	-34.1
OCc1ccc(-c2ccc(-c3ccc(CO)s3)o2)s1 [RITA]	-46
Cc1ccc(Nc2cc(N[C@@H]3CCCC[C@@H]3N)nnc2C(N)=O)nc1C [RO-9021]	-74.9
O=C(CBr)N1CC([N+](=O)[O-])([N+](=O)[O-])C1 [RRx-001]	-23.7
CCC(C)CNCC(=O)N1CCc2sccc2C1c1cccc(C)n1 (stereo not drawn) [RUSKI-201]	-17
CN(CC1=CC2=C(N\C(=N/C2=O)C)C=C1)C3=CC=C(S3)C(=O)N[C@@H](CCC(O)=O)C(O)=O [Raltitrexed]	-59
CCC(=O)NCC[C@@H]1CCc2ccc3c(c21)CCO3 [Ramelteon]	-25.2
CCOC(=O)[C@H](CCc1ccccc1)N[C@@H](C)C(=O)N1[C@H](C(=O)O)C[C@@H]2CCC[C@@H]21 [Ramipril]	-13.7
COc1ccccc1OCC(O)CN1CCN(CC(=O)Nc2c(C)cccc2C)CC1 (stereo not drawn) [Ranolazine]	-11.9
C#CCN[C@@H]1CCc2ccccc21 [Rasagiline mesylate]	-9.57
CCOc1cc(CC(=O)N[C@@H](CC(C)C)c2ccccc2N2CCCCC2)ccc1C(=O)O [Repaglinide]	-23
CCOCc1nc2c(N)nc3ccccc3c2n1CC(C)(C)O [Resiquimod]	-14.3
CCOC(=O)Nc1ccc(NCc2ccc(F)cc2)cc1N [Retigabine]	-11.8
O=C(O)c1cc(O)c2c(c1)C(=O)c1cccc(O)c1C2=O [Rhein]	-14.9
NC(=O)c1ncn([C@@H]2O[C@H](CO)[C@@H](O)[C@H]2O)n1 [Ribavirin]	18.5
